Laboratory results as given in patent US20240228488A1 (TAKEDA PHARMACEUTICAL COMPANY LIMITED, priority 2021, published 2024).

Biological target: human activated kallikrein enzyme (Homo sapiens, UniProt P03952)
Assay: Plasma kallikrein inhibition, fluorogenic PFR-AMC substrate, 500 pM activated kallikrein format
Type: biochemical
Conditions: 500 pM activated kallikrein, 300 uM PFR-AMC, 30 min preincubation, 10 min reaction; read-out: Primary Dose Response Assay: Average EC50
Summary of the method: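 Enzyme (500 pM) was preincubated with inhibitor for 30 min at room temperature in 20 mM Tris pH 7.5, 1 mM EDTA, 150 mM NaCl, 0.1% PEG-400 and 0.1% Triton X-100. The reaction was started with 300 uM PFR-AMC, run 10 min, and fluorescence read at 460 nm (380 nm excitation). EC50 derived.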

Chain of human activated kallikrein enzyme (P03952 391-638 limits assumed): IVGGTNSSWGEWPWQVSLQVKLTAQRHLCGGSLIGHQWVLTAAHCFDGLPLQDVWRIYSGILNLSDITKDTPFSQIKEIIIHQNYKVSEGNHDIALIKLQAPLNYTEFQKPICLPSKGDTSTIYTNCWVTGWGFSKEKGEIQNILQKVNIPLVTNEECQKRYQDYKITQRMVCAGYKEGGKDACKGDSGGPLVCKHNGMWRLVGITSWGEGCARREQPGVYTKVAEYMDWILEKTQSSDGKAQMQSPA
Chain of human activated kallikrein enzyme (P03952 20-390 partner limits assumed): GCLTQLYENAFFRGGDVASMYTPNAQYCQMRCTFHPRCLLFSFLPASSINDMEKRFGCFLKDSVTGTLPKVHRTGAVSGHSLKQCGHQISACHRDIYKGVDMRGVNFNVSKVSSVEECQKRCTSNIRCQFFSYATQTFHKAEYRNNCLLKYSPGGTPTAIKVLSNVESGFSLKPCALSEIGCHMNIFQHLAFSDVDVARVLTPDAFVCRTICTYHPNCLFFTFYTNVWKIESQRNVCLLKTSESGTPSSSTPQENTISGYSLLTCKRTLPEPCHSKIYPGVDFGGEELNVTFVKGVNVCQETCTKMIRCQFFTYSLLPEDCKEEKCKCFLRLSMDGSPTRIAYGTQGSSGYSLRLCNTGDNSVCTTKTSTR

SMILES | EC50 [nM]
COCCOc1ccc(Cl)cc1[C@H]1C[C@@H]1C(=O)Nc1cc(NCc2cn3cc(C4CC4)ccc3n2)ncn1 (racemic) [Example 310, rac-(1S*,2S*)-2-(5-chloro-2-(2-methoxyethoxy)phenyl)-N-(6-(((6-cyclopropylimidazo[1,2-a]pyridin-2-yl)methyl)amino)pyrimidin-4-yl)cyclopropane-1-carboxamide] | 100 to 1000
O=C(Nc1cc(NCc2cn3cc(C4CC4)ccc3n2)ncn1)[C@H]1[C@H](F)[C@@H]1c1cccc(Cl)c1 (racemic) [Example 511, rac-(1R*,2R*,3S*)-2-(3-chlorophenyl)-N-(6-(((6-cyclopropylimidazo[1,2-a]pyridin-2-yl)methyl)amino)pyrimidin-4-yl)-3-fluorocyclopropane-1-carboxamide] | 1 to 10
CC1CCN(c2cc(C3CC3)cn3cc(CNc4cc(NC(=O)[C@H]5C[C@@H]5c5cccc(Cl)c5)ncn4)nc23)C1=O (relative stereo) [Example 67, rac-(1S*,2S*)-2-(3-chlorophenyl)-N-(6-(((6-cyclopropyl-8-(3-methyl-2-oxopyrrolidin-1-yl)imidazo[1,2-a]pyridin-2-yl)methyl)amino)pyrimidin-4-yl)cyclopropane-1-carboxamide] | 1 to 10
Cc1ccnc([C@H]2C[C@@H]2C(=O)Nc2ccc(F)c(NCc3cn4cc(C5CC5)cc(N5CC(=O)N(C)C5=O)c4n3)c2)n1 [Example 656, (1S,2S)—N-(3-(((6-cyclopropyl-8-(3-methyl-2,4-dioxoimidazolidin-1-yl)imidazo[1,2-a]pyridin-2-yl)methyl)amino)-4-fluorophenyl)-2-(4-methylpyrimidin-2-yl)cyclopropane-1-carboxamide] | < 1
O=C(Nc1cc(NCc2cn3cc(C4CC4)ccc3n2)ncn1)[C@@]1(F)C[C@@H]1c1cccc(Cl)c1 (racemic) [Example I-184, rac-(1S*,2S*)-2-(3-chlorophenyl)-N-(6-(((6-cyclopropylimidazo[1,2-a]pyridin-2-yl)methyl)amino)pyrimidin-4-yl)-1-fluorocyclopropane-1-carboxamide] | 10 to 100
O=C(Nc1cc(N2C[C@H](O)C[C@@H]2c2cn3cc(C4CC4)ccc3n2)ncn1)[C@H]1C[C@@H]1c1cccc(Cl)c1 [Example I-250, (1S,2S)-2-(3-chlorophenyl)-N-(6-((2R,4R)-2-(6-cyclopropylimidazo[1,2-a]pyridin-2-yl)-4-hydroxypyrrolidin-1-yl)pyrimidin-4-yl)cyclopropane-1-carboxamide] | > 6000
CCOC(=O)Cc1cc(C2CC2)cn2cc(CNc3ccnc(NC(=O)[C@H]4C[C@@H]4c4cccc(Cl)c4)c3)nc12 [Example I-241, ethyl 2-(2-(((2-((1S,2S)-2-(3-chlorophenyl)cyclopropane-1-carboxamido)pyridin-4-yl)amino)methyl)-6-cyclopropylimidazo[1,2-a]pyridin-8-yl)acetate] | < 1
Cc1ccnc([C@H]2C[C@@H]2C(=O)Nc2ncnc3nn(Cc4cn5cc(C6CC6)cc(N6CC(=O)N(C)C6=O)c5n4)cc23)n1 (racemic) [Example 632, rac-(1S*,2S*)—N-(2-((6-cyclopropyl-8-(3-methyl-2,4-dioxoimidazolidin-1-yl)imidazo[1,2-a]pyridin-2-yl)methyl)-2H-pyrazolo[3,4-d]pyrimidin-4-yl)-2-(4-methylpyrimidin-2-yl)cyclo propane-1-carboxamide] | < 1
Cc1ccnc([C@H]2C[C@@H]2C(=O)Nc2ccc(C#N)c(OCc3cn4cc(C5CC5)cc(N5CC(=O)N(C)C5=O)c4n3)c2)n1 [Example 669, (1S,2S)—N-(4-cyano-3-((6-cyclopropyl-8-(3-methyl-2,4-dioxoimidazolidin-1-yl)imidazo[1,2-a]pyridin-2-yl)methoxy)phenyl)-2-(4-methylpyrimidin-2-yl)cyclopropane-1-carboxamide] | < 1
CN1C(=O)CN(c2cc(C3CC3)cn3cc(CNc4cc(NC(=O)[C@@H]5C[C@H]5c5cc(Cl)ccn5)ncn4)nc23)C1=O (single isomer, unassigned) [Example I-263] | 10 to 100
O=C(Nc1ncccc1OCc1cn2cc(C3CC3)ccc2n1)[C@H]1C[C@@H]1c1cccc(Cl)c1 [Example 569, (1S,2S)-2-(3-chlorophenyl)-N-(3-((6-cyclopropylimidazo[1,2-a]pyridin-2-yl)methoxy)pyridin-2-yl)cyclopropane-1-carboxamide] | 100 to 1000
O=C(Nc1cc(NCc2cn3cc(C4CC4)ccc3n2)ncn1)[C@H]1C[C@@H]1c1cc(Cl)cs1 (racemic) [Example I-186, rac-(1S*,2S*)-2-(4-chlorothiophen-2-yl)-N-(6-(((6-cyclopropylimidazo[1,2-a]pyridin-2-yl)methyl)amino)pyrimidin-4-yl)cyclopropane-1-carboxamide] | 10 to 100
CC(NC(=O)[C@H]1C[C@@H]1c1cccc(Cl)c1)c1cn(Cc2cn3cc(C4CC4)ccc3n2)nn1 (single isomer, unassigned) [Example 589, rac-(1S*,2S*)-2-(3-chlorophenyl)-N-(1-(1-((6-cyclopropylimidazo[1,2-a]pyridin-2-yl)methyl)-1H-1,2,3-triazol-4-yl)ethyl)cyclopropane-1-carboxamide] | 10 to 100
Cc1ccnc([C@H]2C[C@@H]2C(=O)Nc2cc(N[C@H](C)c3cn4cc(C5CC5)cc(N5CCN(C)C5=O)c4n3)ncn2)n1 [Example 536, (1S,2S)-N-(6-(((R)-1-(6-cyclopropyl-8-(3-methyl-2-oxoimidazolidin-1-yl)imidazo[1,2-a]pyridin-2-yl)ethyl)amino)pyrimidin-4-yl)-2-(4-methylpyrimidin-2-yl)cyclopropane-1-carboxamide] | < 1
Cc1ccnc([C@H]2C[C@@H]2C(=O)Nc2cc(N(Cc3cn4cc(C5CC5)cc(N5CC(=O)N(C)C5=O)c4n3)C(=O)OC(C)OC(=O)C(C)C)ncn2)n1 (stereo partly drawn) [Example 467, 1-((((6-cyclopropyl-8-(3-methyl-2,4-dioxoimidazolidin-1-yl)imidazo[1,2-a]pyridin-2-yl)methyl)(6-((1S,2S)-2-(4-methylpyrimidin-2-yl)cyclopropane-1-carboxamido)pyrimidin-4-yl)carbamoyl)oxy)ethyl isobutyrate] | 100 to 1000
O=C(Nc1cn(Cc2cn3cc(C4CC4)ccc3n2)nn1)[C@H]1C[C@@H]1c1cccc(Cl)c1 (racemic) [Example 593, rac-(1S*,2S*)-2-(3-chlorophenyl)-N-(1-((6-cyclopropylimidazo[1,2-a]pyridin-2-yl)methyl)-1H-1,2,3-triazol-4-yl)cyclopropane-1-carboxamide] | > 6000
O=C(Nc1cc(NCc2cn3cc(C4CC4)cc(N4CCN(C5CC5)CC4)c3n2)ncn1)[C@H]1C[C@@H]1c1cccc(Cl)c1 [Example I-201, (1S,2S)-2-(3-chlorophenyl)-N-(6-(((6-cyclopropyl-8-(4-cyclopropylpiperazin-1-yl)imidazo[1,2-a]pyridin-2-yl)methyl)amino)pyrimidin-4-yl)cyclopropane-1-carboxamide] | 1 to 10
Cc1ccnc([C@H]2C[C@@H]2C(=O)Nc2cc(O[C@H](C)c3cn4cc(C5CC5)cc(N5CC(=O)N(C)C5=O)c4n3)cnn2)n1 (single isomer, unassigned) [Example 42] | < 1
Cc1ccnc([C@H]2C[C@@H]2C(=O)Nc2cc(NC(C)c3cn4c(N5CC(=O)N(C)C5=O)cc(C5CC5)cc4n3)nc(C)n2)n1 (stereo partly drawn) [Example 362, (1S,2S)-N-(6-((1-(7-cyclopropyl-5-(3-methyl-2,4-dioxoimidazolidin-1-yl)imidazo[1,2-a]pyridin-2-yl)ethyl)amino)-2-methylpyrimidin-4-yl)-2-(4-methylpyrimidin-2-yl)cyclopropane-1-carboxamide] | 100 to 1000
CCc1cc(N2CC(=O)N(C)C2=O)c2nc([C@@H](C)Nc3cc(NC(=O)[C@H]4C[C@@H]4c4nccc(C)n4)nc(C)n3)cn2c1 [Example 429, (1S,2S)-N-(6-(((R)-1-(6-ethyl-8-(3-methyl-2,4-dioxoimidazolidin-1-yl)imidazo[1,2-a]pyridin-2-yl)ethyl)amino)-2-methylpyrimidin-4-yl)-2-(4-methylpyrimidin-2-yl)cyclopropane-1-carboxamide] | < 1
O=C(Nc1cc(NCc2cn3cc(C4CC4)ccc3n2)ncn1)[C@H]1C[C@@H]1c1cc(Cl)ccc1OC(F)F (racemic) [Example 311, rac-(1S*,2S*)-2-(5-chloro-2-(difluoromethoxy)phenyl)-N-(6-(((6-cyclopropylimidazo[1,2-a]pyridin-2-yl)methyl)amino)pyrimidin-4-yl)cyclopropane-1-carboxamide] | 10 to 100
CC(C)c1ccc2nc(CNc3cc(NC(=O)[C@H]4C[C@@H]4c4cccc(Cl)c4)ncn3)cn2c1 [Example I-160, (1S,2S)-2-(3-chlorophenyl)-N-(6-(((6-isopropylimidazo[1,2-a]pyridin-2-yl)methyl)amino)pyrimidin-4-yl)cyclopropane-1-carboxamide] | 10 to 100
COc1ccc(CN2C(=O)CN(c3cc(C4CC4)cn4cc(CNc5ccnc(NC(=O)[C@H]6C[C@@H]6c6cccc(Cl)c6)c5)nc34)C2=O)cc1 [Example I-22, (1S,2S)-2-(3-chlorophenyl)-N-(4-(((6-cyclopropyl-8-(3-(4-methoxybenzyl)-2,4-dioxoimidazolidin-1-yl)imidazo[1,2-a]pyridin-2-yl)methyl)amino)pyridin-2-yl)cyclopropane-1-carboxamide] | 10 to 100
O=C(O)CCc1cc(C2CC2)cn2cc(CNc3cc(NC(=O)[C@H]4C[C@@H]4c4cccc(Cl)c4)ncn3)nc12 (racemic) [Example 72, rac-3-(2-(((6-((1S*,2S*)-2-(3-chlorophenyl)cyclopropane-1-carboxamido)pyrimidin-4-yl)amino)methyl)-6-cyclopropylimidazo[1,2-a]pyridin-8-yl)propanoic acid] | 1 to 10
